According to ChEMBL document CHEMBL1129911, “Synthesis, characterization, interaction with DNA, and antitumor activity of a cis-Dichloroplatinum(II) complex linked to an intercalator via one methylene chain” (Bioorg Med Chem Lett, 1997):

System: Nucleic Acid
Experiment: The association constant was obtained from absorption spectral change
Type: nucleic-acid assay

Question: Which K ass does the source give for NCCNCc1c2ccccc2nc2ccccc12 here?
Answer: Its K ass is 36000 M⁻¹.
